According to patent US8158560B2, “Insecticidal arylpyrroline compounds” (Bayer CropScience AG, priority 2009, dated 2012):

Legend:
Format in all cases: in vivo
Aulacophora femoralis = assay: Biological Test Example 3: test against cucurbit leaf beetle (Aulacophora femoralis), cucumber leaf dip; details: foliar, 168 h, active compound concentration 100 ppm, second instar larvae, after 7 days, read-out: insecticidal activity
Method: (§1) Unless not mentioned otherwise, the test solutions were prepared as follows:
(§2) Containing as solvent: Dimethylformamide, 3 parts by weight; and as emulsifier: Polyoxyethylene alkyl phenyl ether, 1 part by weight
(§3) To prepare the test solution, 1 part by weight of an active compound is mixed with the above-mentioned amount of solvent containing the above-mentioned amount of emulsifier, and the mixture is diluted with water to the desired concentration.
Test Against Cucurbit Leaf Beetle (Aulacophora femoralis)
Leaves of cucumber were immersed in the test solution at the appropriate concentration, and the leaves were dried in air. The leaves were then put in a plastic cup containing sterilized black soil and five Aulacophora femoralis at second instar larvae were released in the cup. The cups were placed in a temperature-controlled chamber at 25° C. After 7 days, the number of dead larvae was counted, and the insecticidal activity was calculated. An insecticidal activity of 100% means that all larvae were killed, whereas an insecticidal activity of 0% means that no larva was killed.

Spodoptera litura = assay: Biological Test Example 1: test against tobacco cutworm (Spodoptera litura) larvae, sweet potato leaf dip; details: foliar, 168 h, active compound concentration 100 ppm, third instar larvae, after 7 days, read-out: insecticidal activity
Method: as §1, §2, §3
Test Against Tobacco Cutworm (Spodoptera litura) Larvae
Leaves of sweet potato were immersed in the test solution at the appropriate concentration, and the leaves were dried in air. The leaves were then placed in a petri dish having a diameter of 9 cm, and ten Spodoptera litura at third instar larvae were released therein. The petri dishes were placed in a temperature-controlled chamber at 25° C.
After 2 days and 4 days more sweet potato leaves were added. After 7 days, the number of dead larvae was counted and the insecticidal activity was calculated. An insecticidal activity of 100% means that all larvae were killed, whereas an insecticidal activity of 0% means that no larva was killed. In the current test, the results of two petri dishes for each treatment were averaged.

Tetranychus urticae = assay: Biological Test Example 2: test against two-spotted spider mite (Tetranychus urticae), spray on kidney bean; details: 168 h, active compound concentration 100 ppm, adult mites, after 7 days, read-out: acaricidal activity
Method: as §1, §2, §3
Test Against Two-Spotted Spider Mite (Tetranvchus urticae)
50 to 100 adult mites of Tetranychus urticae were inoculated to leaves of kidney bean at two-leaf stage planted in a pot of 6 cm in diameter. After one day, test solution at the appropriate concentration was sprayed thereon in a sufficient amount using a spray gun. After the spraying, the plant pot was placed inside a greenhouse, and after 7 days, the acaricidal activity was calculated. An acaricidal activity of 100% means that all mites were killed, whereas an acaricidal activity of 0% means that no mite was killed.

[1] = system: organic phosphorus agent- and carbamate agent-resistant Myzus persicae; assay: Biological Test Example 4: test against organic phosphorus agent- and carbamate agent-resistant green peach aphid (Myzus persicae), spray on eggplant; details: active compound concentration 100 ppm; after 7 days
Method: as §1, §2, §3
Test Against Organic Phosphorus Agent- and Carbamate Agent Resistant Green Peach Aphid (Myzus persicae)
50 to 100 head of organic phosphorous agent- and carbamate agent-resistant Myzus persicae were inoculated to leaves of eggplant at two-leaf stage, planted in a pot of 6 cm in diameter. After one day, test solution at the appropriate concentration was sprayed thereon in a sufficient amount using a spray gun. After the spraying, the plant pot was placed inside a greenhouse, and after 7 days, the insecticidal rate was calculated.
An insecticidal activity of 100% means that all aphids were killed, whereas an insecticidal activity of 0% means that no aphid was killed.

[2] = system: Spodoptera litura L2 stage; assay: Spodoptera litura root soaking test (PRODLI); details: 20 ppm, 4 dat
Method: Spodoptera litura—Root Soaking Test (PRODLI)
Insect: Spodoptera litura L2 stage;
Material: Culture media bottles for hydroponics: Plastic (A-PET) cups for test, square type;
Plant: Broccoli 5 leaf stage (ca. 12 cm high), soil around the roots was washed off just before the test;
Solvent pre-mixture “Sorpol SD” for root soaking test;
Sorpol SD: Sorpol BDB:Dimethylformamide=3:3:140
Procedure: Test solutions are prepared in the bottles at the appropriate concentration. The test plant root is dipped into the test solution in the bottle and kept in a test room. After 3 days, ⅓ part of the leaves of the plants is cut and put into the A-PET cup.
Into each test cup five larvae L2 are released, the cup is covered with a lid and stored at 25° C. and at a relative humidity of 50-60% and under 16L8D lighting conditions.
After the specified period of time the mortality in % is determined and the rate of death is calculated.

SMILES	pest or weed control at 100 ppm (Aulacophora femoralis)	pest or weed control at 100 ppm (Spodoptera litura)	pest or weed control at 100 ppm (Tetranychus urticae)	insecticidal activity [1]	Efficacy/day(s) of treatment [2]
O=C(NC1CSC1)c1ccc(C2=NCC(c3cc(Cl)c(Cl)c(Cl)c3)(C(F)(F)F)C2)cc1Br (centres unmarked) [Compound 1-4, 2-Bromo-N-(thietan-3-yl)-4-[3-(3,4,5-trichlorophenyl)-3-(trifluoromethyl)-3,4-dihydro-2H-pyrrol-5-yl]benzamide]	100%	100%	–	–	–
O=C(NC1CSC1)c1ccc(C2=NCC(c3cc(Cl)c(Cl)c(Cl)c3)(C(F)(F)F)C2)cc1C(F)(F)F (centres unmarked) [Compound 1-7, N-(thietan-3-yl)-4-[3-(3,4,5-trichlorophenyl)-3-(trifluoromethyl)-3,4-dihydro-2H-pyrrol-5-yl]-2-(trifluoromethyl)benzamide]	100%	100%	100%	100%	–
O=C(NC1C[S+]([O-])C1)c1ccc(C2=NCC(c3cc(Cl)c(Cl)c(Cl)c3)(C(F)(F)F)C2)cc1C(F)(F)F (centres unmarked) [Compound 1-8, N-(1-Oxidothietan-3-yl)-4-[3-(3,4,5-trichlorophenyl)-3-(trifluoromethyl)-3,4-dihydro-2H-pyrrol-5-yl]-2-(trifluoromethyl)benzamide]	100%	100%	100%	–	–
O=C(NC1CS(=O)(=O)C1)c1ccc(C2=NCC(c3cc(Cl)c(Cl)c(Cl)c3)(C(F)(F)F)C2)cc1C(F)(F)F (centres unmarked) [Compound 1-9, N-(1,1-Dioxidothietan-3-yl)-4-[3-(3,4,5-trichlorophenyl)-3-(trifluoromethyl)-3,4-dihydro-2H-pyrrol-5-yl]-2-(trifluoromethyl)benzamide]	100%	100%	100%	100%	–
Cc1cc(C2=NCC(c3cc(Cl)c(Cl)c(Cl)c3)(C(F)(F)F)C2)ccc1C(=O)NC1CSC1 (centres unmarked) [Compound 1-10, 2-methyl-N-(thietan-3-yl)-4-[3-(3,4,5-trichlorophenyl)-3-(trifluoromethyl)-3,4-dihydro-2H-pyrrol-5-yl]benzamide]	100%	100%	100%	100%	–
Cc1cc(C2=NCC(c3cc(Cl)c(Cl)c(Cl)c3)(C(F)(F)F)C2)ccc1C(=O)NC1C[S+]([O-])C1 (centres unmarked) [Compound 1-11, 2-Methyl-N-(1-oxidothietan-3-yl)-4-[3-(3,4,5-trichlorophenyl)-3-(trifluoromethyl)-3,4-dihydro-2H-pyrrol-5-yl]benzamide]	100%	100%	100%	–	–
Cc1cc(C2=NCC(c3cc(Cl)c(Cl)c(Cl)c3)(C(F)(F)F)C2)ccc1C(=O)NC1CS(=O)(=O)C1 (centres unmarked) [Compound 1-12, N-(1,1-Dioxidothietan-3-yl)-2-methyl-4-[3-(3,4,5-trichlorophenyl)-3-(trifluoromethyl)-3,4-dihydro-2H-pyrrol-5-yl]benzamide]	100%	100%	100%	100%	–
O=C(NC1CSC1)c1ccc(C2=NCC(c3cc(C(F)(F)F)cc(C(F)(F)F)c3)(C(F)(F)F)C2)cc1C(F)(F)F (centres unmarked) [Compound 1-16, 4-{3-[3,5-Bis(trifluoromethyl)phenyl}-3-(trifluoromethyl)-3,4-dihydro-2H-pyrrol-5-yl]-N-(thietan-3-yl)-2-(trifluoromethyl)benzamide]	100%	100%	100%	100%	–
Cc1cc(C2=NCC(c3cc(C(F)(F)F)cc(C(F)(F)F)c3)(C(F)(F)F)C2)ccc1C(=O)NC1CSC1 (centres unmarked) [Compound 1-19, 4-{3-[3,5-Bis(trifluoromethyl)phenyl]-3-(trifluoromethyl)-3,4-dihydro-2H-pyrrol-5-yl}-2-methyl-N-(thietan-3-yl)benzamide]	100%	100%	100%	100%	–
Cc1cc(C2=NCC(c3cc(C(F)(F)F)cc(C(F)(F)F)c3)(C(F)(F)F)C2)ccc1C(=O)NC1C[S+]([O-])C1 (centres unmarked) [Compound 1-20, 4-{3-[3,5-Bis(trifluoromethyl)phenyl]-3-(trifluoromethyl)-3,4-dihydro-2H-pyrrol-5-yl}-2-methyl-N-(1-oxidothietan-3-yl)benzamide]	100%	100%	100%	–	–
O=C(NC1CSC1)c1ccc(C2=NCC(c3cc(C(F)(F)F)cc(C(F)(F)F)c3)(C(F)(F)F)C2)cc1Br (centres unmarked) [Compound 1-104, 4-{3-[3,5-Bis(trifluoromethyl)phenyl]-3-(trifluoromethyl)-3,4-dihydro-2H-pyrrol-5-yl}-2-bromo-N-(thietan-3-yl) benzamide]	100%	100%	–	–	–
O=C(CNC(=O)c1ccc(C2=NCC(c3cc(Cl)c(Cl)c(Cl)c3)(C(F)(F)F)C2)cc1C(F)(F)F)NC1CSC1 (centres unmarked) [Compound 3-7]	100%	100%	100%	–	–
O=C(CNC(=O)c1ccc(C2=NCC(c3cc(C(F)(F)F)cc(C(F)(F)F)c3)(C(F)(F)F)C2)cc1C(F)(F)F)NC1CSC1 (centres unmarked) [Compound 3-19, 4-{3-[3,5-Bis(trifluoromethyl)phenyl]-3-(trifluoromethyl)-3,4-dihydro-2H-pyrrol-5-yl}-N-[2-oxo-2-(thietan-3-ylamino)ethyl]-2-(trifluoromethyl)benzamide]	100%	100%	–	–	–
Cc1cc(C2=NCC(c3cc(Cl)cc(Cl)c3)(C(F)(F)F)C2)ccc1C(=O)NC1CS(=O)(=O)C1 (centres unmarked) [Compound T-1]	–	–	–	–	100%/4 dat
Cc1cc(C2=NOC(c3cc(Cl)cc(Cl)c3)(C(F)(F)F)C2)ccc1C(=O)NC1CS(=O)(=O)C1 (centres unmarked) [ExNo A10 of WO 2009/080250]	–	–	–	–	0%/4 dat
